The source of these data is US12558428B2, “Heterobifunctional compounds and their use in treating disease” (Halda Therapeutics OpCo, Inc., priority 2024, dated 2026).

Common to all, as to assay type: cell-based
The test system of assay [1] is T-Rex 293 cells having increased expression of estrogen receptor alpha protein. Description: Cellular growth inhibition assay, T-Rex 293 cells, (+) doxycycline. The note with it: T-REx-293, 72 h, 72 hours. A digest of the protocol:
(§1)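 Viability read-out was CellTiter-Glo 2.0 luminescence after 72 h compound exposure, normalized to zero luminescence and fitted by four-parameter regression to give GI50. Cells were an ERα-inducible T-Rex 293 clone cultured with or without 3 ng/mL doxycycline in charcoal-stripped, phenol red-free medium.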

For assay [2], the system named is MCF7 cells (ATCC #HTB-22). Description: Cellular growth inhibition assay, MCF7 cells purchased from ATCC. The note with it: Homo sapiens, MCF7, 144 h, Table 8-A; MCF7 cells purchased from ATCC; six days; CellTiter-Glo; read-out: GI50. A digest of the protocol:
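MCF7 cells in RPMI 1640 with 10% FBS and 0.2 U/ml insulin, seeded at 1,500 cells/well (ATCC) or 225 cells/well (ECACC). Compounds added 24 h later, then 6 days at 37° C. Viability by CellTiter-Glo 2.0 luminescence. GI50 from four-parameter fit.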

Assay [3] relates to T-Rex 293 cells lacking increased expression of estrogen receptor alpha protein. Nature of the assay: Cellular growth inhibition assay, T-Rex 293 cells, (−) doxycycline. The note with it: T-REx-293, 72 h, 72 hours. The essentials: as §1
The mark [4] stands for this setting: Table 7-A, T-Rex 293 cells with doxycycline (increased ERα expression), CellTiter-Glo, read-out: (+) Dox GI50.
Setting [5] is: Table 7-A, T-Rex 293 cells without doxycycline (lacking increased ERα expression), CellTiter-Glo, read-out: (−) Dox GI50.
Where [6] appears, read: Table 7-B, T-Rex 293 cells with doxycycline (increased ERα expression), CellTiter-Glo, read-out: (+) Dox GI50.
The mark [7] stands for this setting: Table 7-B, T-Rex 293 cells without doxycycline (lacking increased ERα expression), CellTiter-Glo, read-out: (−) Dox GI50.

Like-named read-outs stand apart in the source and are kept apart here.

For orientation: GI50 means the concentration giving 50% growth inhibition. On to `Cc1sc2c(c1C)C(c1ccc(C3CN(CC4(O)CCN(CC5CN(c6ccc([C@@H]7c8ccc(O)cc8CC[C@@H]7c7ccccc7)cc6)C5)CC4)C3)cc1)=N[C@@H](Cc1ncco1)c1nnc(C)n1-2` [III-169], for which the concentration for 50% growth inhibition (GI50) in assay [1] (setting [4]) was < 50 nM; in assay [2], 50 to 500 nM; in assay [3] (setting [5]) it was 50 to 500 nM.

Take `Cc1sc2c(c1C)C(c1ccc(N3CC(CN4CCN(CC5CN(c6ccc(C7=C(c8ccc(F)cc8)CCCc8cc(C(=O)O)ccc87)cc6)C5)CC4)C3)cc1)=N[C@@H](C)c1nnc(C)n1-2` [IV-38]: the GI50 in assay [1] (setting [4]) was < 50 nM; in assay [2], < 50 nM; in assay [3] (setting [5]), 500 to 2500 nM.

Consider `Cc1sc2c(c1C)C(c1ccc(N3CC(CC4(O)CCN(CC5CN(c6ccc([C@@H]7c8ccc(O)cc8CC[C@@H]7c7ccc(F)cc7)cc6)C5)CC4)C3)cc1)=N[C@@H](C)c1nnc(C)n1-2` [III-239], for which the values for the concentration for 50% growth inhibition (GI50) in assay [1] (setting [4]), in assay [2] and in assay [3] (setting [5]) were < 50 nM, < 50 nM and 50 to 500 nM, respectively.

Regarding `Cc1cc([C@@H]2c3ccc(O)cc3CC[C@@H]2c2ccccc2)c(F)cc1N1CCN(CC2(O)CCN(c3ccc(C4=N[C@@H](C)c5nnc(C)n5-c5sc(C)c(C)c54)cc3)CC2)CC1` [III-287], the GI50 is < 50 nM in assay [1] (setting [4]), 50 to 500 nM in assay [2] and 500 to 2500 nM in assay [3] (setting [5]).

As to `Cc1sc2c(c1C)C(c1ccc(N3CC(C(=O)N4CCC(c5ccc([C@@H]6c7ccc(O)cc7CC[C@@H]6c6ccccc6)cc5)CC4)C3)cc1)=N[C@@H](C)c1nnc(C)n1-2` [III-139], the results for the GI50 in assay [1] (setting [4]), in assay [2] and in assay [3] (setting [5]) were 500 to 2500 nM, 50 to 500 nM and 500 to 2500 nM, respectively.

Turning to `Cc1sc2c(c1C)C(c1ccc(N3CC4(CCC(CN5CCC(c6ccc([C@H]7c8ccc(O)cc8CC[C@H]7c7ccc(F)cc7)cc6)CC5)CC4)C3)cc1)=N[C@@H](C)c1nnc(C)n1-2` [III-252], the 50% growth inhibitory concentration (GI50) in assay [1] (setting [4]) fell in the range of 50 to 500 nM; in assay [2], 500 to 2500 nM; in assay [3] (setting [5]), 500 to 2500 nM.

As to `Cc1sc2c(c1C)C(c1ccc(N3CCC(O)(CN4CCN(c5ccc([C@@H]6c7ccc(C(=O)O)cc7CC[C@@H]6c6ccccc6)cc5)CC4)CC3)cc1)=N[C@@H](Cc1ncco1)c1nnc(C)n1-2` [III-200], the GI50 in assay [1] (setting [4]) is < 50 nM; in assay [2], < 50 nM; in assay [3] (setting [5]), 50 to 500 nM.

For `Cc1sc2c(c1C)C(c1ccc(N3CC4(CCC(F)(CN5CCC(c6ccc([C@@H]7c8ccc(O)cc8CC[C@@H]7c7ccccc7)cc6)CC5)CC4)C3)cc1)=N[C@@H](C)c1nnc(C)n1-2` [III-222], the GI50 in assay [1] (setting [4]) was < 50 nM; in assay [2], 50 to 500 nM; in assay [3] (setting [5]) it was > 2500 nM.

Turning to `CC1=C(c2c(F)cc(F)cc2F)[C@H](c2ccc(OCC(=O)N3CCCC4(CCN(c5ccc(C6=N[C@@H](C)c7nnc(C)n7-c7sc(C)c(C)c76)cc5)C4)C3)cc2)Oc2ccc(O)cc21` (stereo partly drawn) [V-30], the GI50 in assay [1] (setting [4]), in assay [2] and in assay [3] (setting [5]) was 50 to 500 nM in each case.

For `CC1=C(c2c(F)cc(F)cc2F)[C@H](c2ccc(OCC(=O)N3CCCC4(CCN(c5ccc(C6=N[C@@H](Cc7ncco7)c7nnc(C)n7-c7sc(C)c(C)c76)cc5)C4)C3)cc2)Oc2ccc(O)cc21` (stereo partly drawn) [V-33], the GI50 is < 50 nM in assay [1] (setting [4]), 50 to 500 nM in assay [2] and 50 to 500 nM in assay [3] (setting [5]).

As to `Cc1sc2c(c1C)C(c1ccc(OC3CC4(CCN(CCOc5ccc(C(=O)c6c(-c7ccc(O)cc7)sc7cc(O)ccc67)cc5)CC4)C3)cc1)=N[C@@H](Cc1ncco1)c1nnc(C)n1-2` [I-10, (S)-(6-hydroxy-2-(4-hydroxyphenyl)benzo[b]thiophen-3-yl)(4-(2-(2-(4-(2,3,9-trimethyl-6-(oxazol-2-ylmethyl)-6H-thieno[3,2-f][1,2,4]triazolo[4,3-a][1,4]diazepin-4-yl)phenoxy)-7-azaspiro[3.5]nonan-7-yl)ethoxy)phenyl)methanone], the concentration for 50% growth inhibition (GI50) is < 50 nM in assay [1] (T-Rex 293 cells with doxycycline-induced ERα expression, CellTiter-Glo 2.0, read-out: (+) Dox TRex ERa (GI50)); < 50 nM in assay [2]; < 50 nM in assay [3] (T-Rex 293 cells without doxycycline, CellTiter-Glo 2.0, read-out: (−) Dox TRex ERa (GI50)).

Turning to `Cc1cc(N2CCC(O)(CN3CCN(c4ccc([C@H]5c6ccc(O)cc6CC[C@H]5c5ccc(F)cc5F)cc4)CC3)CC2)ccc1Oc1ccc(C(C)(C)O)cc1-c1cn(C)c(=O)c2[nH]ccc12` [V-40], the concentration for 50% growth inhibition (GI50) is < 50 nM in assay [1] (setting [6]), < 50 nM in assay [2] and 500 to 2500 nM in assay [3] (setting [7]).

For `Cc1sc2c(c1C)C(c1ccc(N3CCC(O)(CN4CCC(c5cc(F)c([C@H]6c7ccc(O)cc7CC[C@H]6c6ccc(F)cc6)c(F)c5)CC4)CC3)cc1)=N[C@@H](C)c1nnc(C)n1-2` (single isomer, unassigned) [III-244], the GI50 in assay [1] (setting [4]) is > 2500 nM; in assay [2], 50 to 500 nM; in assay [3] (setting [5]), > 2500 nM.

As to `Cc1sc2c(c1C)C(c1ccc(N3CCC(O)(CN4CCN(c5ccc([C@H]6c7ccc(O)cc7CC[C@H]6c6ccc(F)cc6)cc5F)CC4)CC3)cc1)=N[C@@H](C)c1nnc(C)n1-2` [III-250, 4-((4-(2-fluoro-4-((1S,2R)-2-(4-fluorophenyl)-6-hydroxy-1,2,3,4-tetrahydronaphthalen-1-yl)phenyl)piperazin-1-yl)methyl)-1-(4-((S)-2,3,6,9-tetramethyl-6H-thieno[3,2-f][1,2,4]triazolo[4,3-a][1,4]diazepin-4-yl)phenyl)piperidin-4-ol], the GI50 in assay [1] (setting [4]), in assay [2] and in assay [3] (setting [5]) was 50 to 500 nM each time.

For `Cc1sc2c(c1C)C(c1ccc(N3CCC(O)(CN4CCN(c5ccc(C6=C(c7ccc(Cl)cc7Cl)CCCc7cc(O)ccc76)cc5)CC4)CC3)cc1)=N[C@@H](C)c1nnc(C)n1-2` [IV-19], the concentration for 50% growth inhibition (GI50) in assay [1] (setting [4]) was < 50 nM; in assay [2], 50 to 500 nM; in assay [3] (setting [5]) it was 500 to 2500 nM.

As to `Cc1sc2c(c1C)C(c1ccc(N3CCC(CN4CCN(c5ccc([C@@H]6c7ccc(O)cc7CC[C@@H]6c6ccccc6)cc5)CC4)CC3)cc1)=N[C@@H](Cc1ncco1)c1nnc(C)n1-2` [III-73], the results for the 50% growth inhibitory concentration (GI50) in assay [1] (setting [4]), in assay [2] and in assay [3] (setting [5]) were < 50 nM, < 50 nM and 500 to 2500 nM, respectively.

For the compound `Cc1sc2c(c1C)C(c1ccc(N3CC4(CCC(CN5CCC(c6ccc([C@@H]7c8ccc(O)cc8CC[C@@H]7c7ccccc7)cc6)CC5)CC4)C3)cc1)=N[C@@H](C)c1nnc(C)n1-2` [III-229], the GI50 in assay [1] (setting [4]) was < 50 nM; in assay [2] it was 50 to 500 nM; in assay [3] (setting [5]), 500 to 2500 nM.

With `Cc1sc2c(c1C)C(c1ccc(NCCN3CCN(CCOc4ccc([C@H]5c6ccc(O)cc6CC[C@H]5c5ccccc5)cc4)CC3)cc1)=N[C@@H](Cc1ncco1)c1nnc(C)n1-2` [III-104], the 50% growth inhibitory concentration (GI50) in assay [1] (setting [4]) is < 50 nM; in assay [2] it was < 50 nM; in assay [3] (setting [5]), 50 to 500 nM.

Regarding `Cc1sc2c(c1C)C(c1ccc(N3CCC(O)(CN4CCN(c5cc(F)c([C@H]6c7ccc(O)cc7CC[C@H]6c6ccc(F)cc6)cc5F)CC4)CC3)cc1)=N[C@@H](C)c1nnc(C)n1-2` [III-257], the figures for the GI50 in assay [1] (setting [4]), in assay [2] and in assay [3] (setting [5]) were 50 to 500 nM, 50 to 500 nM and 500 to 2500 nM, respectively.

Consider `Cc1sc2c(c1C)C(c1ccc(N3CCC(O)(CC4CCN(c5ccc([C@@H]6c7ccc(O)cc7CC[C@@H]6c6ccccc6)cc5)CC4)CC3)cc1)=N[C@@H](C)c1nnc(C)n1-2` [III-152], for which the values for the GI50 in assay [1] (setting [4]), in assay [2] and in assay [3] (setting [5]) were < 50 nM, 50 to 500 nM and 500 to 2500 nM, respectively.

Consider `Cc1sc2c(c1C)C(c1ccc(C#CC3CC4(CCN(c5ccc([C@@H]6c7ccc(O)cc7CC[C@@H]6c6ccccc6)cc5)CC4)C3)cc1)=N[C@@H](Cc1ncco1)c1nnc(C)n1-2` [I-46], for which the 50% growth inhibitory concentration (GI50) in assay [1] (setting [4]) is < 50 nM; in assay [2], 50 to 500 nM; in assay [3] (setting [5]), > 2500 nM.

With `Cc1cc(N2CCC(O)(CN3CCN(c4ccc([C@@H]5c6ccc(O)cc6CC[C@@H]5c5ccc(F)cc5F)cc4)CC3)CC2)ccc1Oc1ccc(C(C)(C)O)cc1-c1cn(C)c(=O)c2[nH]ccc12` [V-39], the GI50 in assay [1] (setting [6]), in assay [2] and in assay [3] (setting [7]) was 50 to 500 nM throughout.

Take `Cc1sc2c(c1C)C(c1ccc(N3CCC(F)(CN4CCC(c5ccc(C6=C(c7ccc(Cl)cc7Cl)CCCc7cc(C(=O)O)ccc76)cc5)CC4)CC3)cc1)=N[C@@H](C)c1nnc(C)n1-2` [IV-21]: the concentration for 50% growth inhibition (GI50) is < 50 nM in assay [1] (setting [4]), 50 to 500 nM in assay [2] and 500 to 2500 nM in assay [3] (setting [5]).

For the compound `Cc1sc2c(c1C)C(c1ccc(N3CC4(CN(CC5CCN(c6ccc([C@@H]7c8ccc(O)cc8CC[C@@H]7c7ccccc7)cc6)CC5)C4)C3)cc1)=N[C@@H](C)c1nnc(C)n1-2` [III-97], the GI50 was < 50 nM in assay [1] (setting [4]), < 50 nM in assay [2] and 500 to 2500 nM in assay [3] (setting [5]).

As to `Cc1sc2c(c1C)C(c1ccc(N3CCC(O)(CN4CCN(c5ccc([C@H]6c7ccc(C(=O)O)cc7CC[C@H]6c6ccccc6)cc5)CC4)CC3)cc1)=N[C@@H](C)c1nnc(C)n1-2` [III-189], the GI50 in assay [1] (setting [4]) was > 2500 nM; in assay [2] it was 50 to 500 nM; in assay [3] (setting [5]) it was > 2500 nM.

For `Cc1sc2c(c1C)C(c1ccc(OCC3CN(CC4CCN(c5ccc([C@@H]6c7ccc(O)cc7CC[C@@H]6c6ccccc6)cc5)CC4)C3)cc1)=N[C@@H](C)c1nnc(C)n1-2` [III-70], the concentration for 50% growth inhibition (GI50) in assay [1] (setting [4]) was < 50 nM; in assay [2] it was < 50 nM; in assay [3] (setting [5]) it was 50 to 500 nM.
